One data set deals with androgen receptor. Kind of data set: Androgenic activity: transcriptional activation (MMTV-Luc luciferase reporter) assay with 1 nM DHT. In kind it is cell-based, human. The conditions noted are these: 24 hours. The protocol:
(§1) The stable cell line was maintained by subculturing using RPMI1640 and 10% fetal bovine serum (GIBCO BRL, Gaithersburg, Md., USA). For transcriptional activation assay, the cells were seeded in a 96-well plate, with 25,000 cells per well, while replacing the medium with phenol red-free RPMI1640 containing 5% charcoal-stripped fetal bovine serum. […] The cell culture was treated and incubated with CCK-8 at 1:10 for 2 hours. 2 hour later, the absorbance of each well was measured at 450 nm. All the experiments were 3 times and the absorbance was averaged. […] The experimental result is shown in Table 1, Table 2 and FIGS. 1-4.
In general terms: Reporter assays use an easily measured gene product as a stand-in for the process of interest.

In data set [1] the test system is 22Rv1 human prostate cancer cells. Kind of data set: CCK-8 assay conducted in parallel to investigate cytotoxicity (cell viability). As for the experimental part: as §1
For a further data set, the system named is Dkk-1. Kind of data set: Inhibition of expression of hair follicle catagen factor (Dkk-1 ELISA). In kind it is cell-based. Particulars: 24 hours, human dermal papilla cells (hDPCs). The protocol:
The inhibition of the expression of the hair follicle catagen marker Dkk-1 was investigated using human dermal papilla cells (hDPCs). The human dermal papilla cells were purchased from PromoCell. The hDPCs were subcultured in an hDPC culture medium (follicle dermal papilla cell growth medium; PromoCell, Heidelberg, Germany) containing a medium additive (Supplement Mix; PromoCell, Heidelberg, Germany), 100 units/mL penicillin and […] streptomycin under the condition of 37° C. and 5% CO2. One million subcultured hDPCs were seeded onto a 100-mm cell culture dish and then cultured in an incubator at 37° C. 48 hours later, after treating with each of gypsogenin 3-O-β-D-glucuronopyranoside, deapioplatycodin D, congmunoside X and chikusetsusaponin IVa at 2 ppm or 20 ppm for 24 hours, the cell culture was subjected to Dkk-1 ELISA assay (R&D Systems, USA). The protein amount of each test group was identified by BCA assay and corrected with the result of Dkk-1 ELISA.

As for `C[C@]12CCC(=O)C[C@@H]1CC[C@@H]1[C@@H]2CC[C@]2(C)[C@@H](O)CC[C@@H]12` [DHT, dihydrotestosterone, reference compound], the “Androgenic activity (% of 1 nM DHT)” value with androgen receptor (DHT 1 nM alone, 22Rv1 MMTV-Luc stable cell line) is recorded as 100.0 % of 1 nM DHT. Further, the “Cell viability (% of 1 nM DHT)” value in data set [1] (DHT 1 nM alone, CCK-8, 22Rv1 stable cell line) is listed as 100.0 % of 1 nM DHT.

`C[C@@H]1O[C@@H](O[C@H]2[C@H](OC(=O)[C@]34CCC(C)(C)C[C@H]3C3=CC[C@@H]5[C@@]6(C)C[C@H](O)[C@H](O[C@@H]7O[C@H](CO)[C@@H](O)[C@H](O)[C@H]7O)C(CO)(CO)[C@@H]6CC[C@@]5(C)[C@]3(C)C[C@H]4O)OC[C@H](O)[C@@H]2O)[C@H](O)[C@H](O)[C@H]1O[C@@H]1OC[C@@H](O)[C@H](O)[C@H]1O` [Deapioplatycodin D, deapioplatycodin D]: the “Androgenic activity (% of 1 nM DHT)” value with androgen receptor (0.2 ppm together with 1 nM DHT) is reported as 89.1 % of 1 nM DHT; in the data set on androgen receptor (2 ppm together with 1 nM DHT), 72.2 % of 1 nM DHT; with androgen receptor (20 ppm together with 1 nM DHT), 34.9 % of 1 nM DHT. Further, the “Cell viability (% of 1 nM DHT)” value in data set [1] (0.2 ppm together with 1 nM DHT, CCK-8) is given as 102.2 % of 1 nM DHT; in data set [1] (2 ppm together with 1 nM DHT, CCK-8), 99.4 % of 1 nM DHT; in data set [1] (20 ppm together with 1 nM DHT, CCK-8), 81.6 % of 1 nM DHT. Moreover, the “Relative expression level of Dkk-1 (% of untreated group)” value in the data set on Dkk-1 (2 ppm) is 86.4 % of untreated group; in the data set with Dkk-1 (20 ppm), 76.7 % of untreated group.

Regarding `CC1(C)CC[C@]2(C(=O)O[C@@H]3O[C@H](CO)[C@@H](O)[C@H](O)[C@H]3O)CC[C@]3(C)C(=CC[C@@H]4[C@@]5(C)CC[C@H](O[C@@H]6O[C@H](C(=O)O)[C@@H](O)[C@H](O)[C@H]6O)C(C)(C)[C@@H]5CC[C@]43C)[C@@H]2C1` [Chikusetsusaponin IVa, chikusetsusaponin IVa], the “Androgenic activity (% of 1 nM DHT)” value was 84.7 % of 1 nM DHT in the data set on androgen receptor (0.2 ppm together with 1 nM DHT), 79 % of 1 nM DHT in the data set on androgen receptor (2 ppm together with 1 nM DHT) and 77.5 % of 1 nM DHT in the data set with androgen receptor (20 ppm together with 1 nM DHT). For the same compound, the “Relative expression level of Dkk-1 (% of untreated group)” value with Dkk-1 (2 ppm) is recorded as 85.2 % of untreated group; in the data set with Dkk-1 (20 ppm), 70.9 % of untreated group.

As for `CC1(C)CC[C@]2(C(=O)O[C@@H]3O[C@H](CO)[C@@H](O)[C@H](O)[C@H]3O)CC[C@]3(C)C(=CC[C@@H]4[C@@]5(C)CC[C@H](O[C@@H]6O[C@H](CO)[C@@H](O)[C@H](O[C@@H]7O[C@H](CO)[C@@H](O)[C@H](O[C@@H]8O[C@H](CO)[C@@H](O)[C@H](O)[C@H]8O)[C@H]7O)[C@H]6O[C@@H]6O[C@H](CO)[C@@H](O)[C@H](O)[C@H]6O)C(C)(C)[C@@H]5CC[C@]43C)[C@@H]2C1` [Congmunoside X, congmunoside X], the entries for the “Androgenic activity (% of 1 nM DHT)” value in the data set with androgen receptor (2 ppm together with 1 nM DHT), in the data set on androgen receptor (20 ppm together with 1 nM DHT) and in the data set with androgen receptor (200 ppm together with 1 nM DHT) were 104.4 % of 1 nM DHT, 85.9 % of 1 nM DHT and 14.9 % of 1 nM DHT, respectively. In addition, the “Relative expression level of Dkk-1 (% of untreated group)” value is on record as 90.8 % of untreated group in the data set with Dkk-1 (2 ppm) and 81.2 % of untreated group in the data set with Dkk-1 (20 ppm).

Take `CC1(C)CC[C@]2(C(=O)O)CC[C@]3(C)C(=CC[C@@H]4[C@@]5(C)CC[C@H](O[C@@H]6O[C@H](C(=O)O)[C@@H](O)[C@H](O)[C@H]6O)[C@@](C)(C=O)[C@@H]5CC[C@]43C)[C@@H]2C1` [Gypsogenin 3-O-β-D-glucuronopyranoside, gypsogenin 3-O-β-D-glucuronopyranoside]: the “Androgenic activity (% of 1 nM DHT)” value is 98.1 % of 1 nM DHT in the data set with androgen receptor (0.2 ppm together with 1 nM DHT), 79.1 % of 1 nM DHT with androgen receptor (2 ppm together with 1 nM DHT) and −9.8 % of 1 nM DHT with androgen receptor (20 ppm together with 1 nM DHT). In addition, the “Relative expression level of Dkk-1 (% of untreated group)” value with Dkk-1 (2 ppm) is 96.5 % of untreated group; in the data set with Dkk-1 (20 ppm) it was 77.5 % of untreated group.

Source of the values: patent US20230023847A1, “COMPOSITION FOR PREVENTING HAIR LOSS AND PROMOTING HAIR REGROWTH” (LG HOUSEHOLD & HEALTH CARE LTD., priority 2020, published 2023).
